Data published in patent US11466033B2 (ENANTA PHARMACEUTICALS, INC., priority 2019, dated 2022).

The compounds below were run against ASK1 (Homo sapiens (Human), UniProt Q99683) (assay: HTRF KinEASE assay, inhibition of ASK1). Conditions: ASK1 kinase, 100 μM ATP, 1 μM STK3 peptide substrate, TR-FRET.
Assay type: biochemical
Description: Assay HTRF® KinEASE™ Assay
ASK1 was purchased from Thermofisher (Catalogue #PV4011), ATP was purchased from Sigma (Catalogue #A7699), HTRF® KinEASE™ Assay System was obtained from Cisbio (Bedford, Mass.). ½ Area plate was purchased from Perkin Elmer (Catalogue ##6005560). HTRF® KinEASE™-STK is a generic method for measuring serine/threonine kinase activities using a time-resolved fluorescence resonance energy transfer (TR-FRET) immunoassay. The IC50 value for each compound was determined in the presence of compound (various concentration from 0 to 10 μM) and a fixed amount of ATP and peptide substrates. The test compound, 1 μM STK3 peptide substrate, and […] of ASK1 kinase are incubated with kinase reaction buffer containing 50 mM HEPES Ph 7.5, 0.01% BRIJ-35, 10 mM MgCl2, and 1 mM EGTA for 30 minutes. 100 μM ATP is added to start kinase reaction and incubated for 3 hours. The STK3-antibody labeled with Eu^3+-Cryptate and 125 nM streptavidin-XL665 are mixed in a single addition with stop reagents provided by the Cisbio kit used to stop the kinase reaction. Fluorescence is detected using an Envision Multilabeled 2014 reader from PerkinElmer. The Fluorescence is measured at 615 nm (Cryptate) and 665 nm (XL665) and a ratio of 665 nm/615 nm is calculated for each well. The resulting TR-FRET is proportional to the phosphorylation level. Staurosporine was used as the positive control. IC50 was determined by Xlfit 5.3.
By using above method, the inhibition of ASK1 was evaluated for the compounds of Formula (I). Example numbers correspond to those in Table 6.

Sequence of ASK1 (Q99683 whole entry): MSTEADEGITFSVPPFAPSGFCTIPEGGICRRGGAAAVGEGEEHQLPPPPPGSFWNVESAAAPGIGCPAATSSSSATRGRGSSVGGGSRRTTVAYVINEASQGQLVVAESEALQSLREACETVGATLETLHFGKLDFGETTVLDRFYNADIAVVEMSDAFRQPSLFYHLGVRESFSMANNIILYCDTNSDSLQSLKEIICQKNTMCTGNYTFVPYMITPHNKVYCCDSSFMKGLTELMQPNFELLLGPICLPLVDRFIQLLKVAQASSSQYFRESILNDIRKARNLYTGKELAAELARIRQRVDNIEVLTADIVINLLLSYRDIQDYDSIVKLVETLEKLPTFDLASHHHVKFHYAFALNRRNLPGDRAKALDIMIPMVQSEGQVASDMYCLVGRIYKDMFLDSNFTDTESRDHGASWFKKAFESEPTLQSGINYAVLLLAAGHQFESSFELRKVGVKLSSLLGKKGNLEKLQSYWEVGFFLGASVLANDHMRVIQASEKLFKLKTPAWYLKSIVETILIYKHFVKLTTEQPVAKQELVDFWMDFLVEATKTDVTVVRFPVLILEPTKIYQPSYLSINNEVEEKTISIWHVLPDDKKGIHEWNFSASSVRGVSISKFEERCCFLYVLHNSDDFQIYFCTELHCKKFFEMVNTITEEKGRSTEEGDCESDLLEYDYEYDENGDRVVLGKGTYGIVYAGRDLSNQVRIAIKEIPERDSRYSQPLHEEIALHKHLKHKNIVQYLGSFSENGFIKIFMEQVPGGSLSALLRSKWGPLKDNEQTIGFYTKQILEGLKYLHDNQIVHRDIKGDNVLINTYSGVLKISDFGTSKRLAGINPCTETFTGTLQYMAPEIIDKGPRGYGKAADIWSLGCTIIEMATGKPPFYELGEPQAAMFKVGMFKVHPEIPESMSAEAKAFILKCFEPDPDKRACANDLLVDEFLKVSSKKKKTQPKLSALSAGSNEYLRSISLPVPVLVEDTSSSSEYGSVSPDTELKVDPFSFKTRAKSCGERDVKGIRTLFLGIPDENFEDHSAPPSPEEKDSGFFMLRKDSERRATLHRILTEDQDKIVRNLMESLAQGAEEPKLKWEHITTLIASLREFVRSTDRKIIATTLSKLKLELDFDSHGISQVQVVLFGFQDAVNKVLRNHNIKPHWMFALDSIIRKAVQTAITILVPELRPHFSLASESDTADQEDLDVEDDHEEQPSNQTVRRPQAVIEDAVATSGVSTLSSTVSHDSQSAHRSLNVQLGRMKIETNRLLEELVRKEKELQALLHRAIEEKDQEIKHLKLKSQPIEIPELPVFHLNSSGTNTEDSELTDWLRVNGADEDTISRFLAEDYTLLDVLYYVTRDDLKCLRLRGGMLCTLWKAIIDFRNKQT

Row | SMILES | IC50 [nM]
1 | CCOC(=O)N1CCc2cnc(C(=O)Nc3cccc(-c4nnc5n4[C@H](C)CC5)n3)cc2C1 [Example 15] | 1.25 to 10
2 | COc1cc2c(cc1C(=O)Nc1cccc(-c3nnc4n3C(C)(C)CC4)n1)CN(C(=O)[C@@H](O)CC(C)C)CC2 [Example 19, (S)—N-(6-(5,5-dimethyl-6,7-dihydro-5H-pyrrolo[2,1-c][1,2,4]triazol-3-yl)pyridin-2-yl)-2-(2-hydroxy-4-methylpentanoyl)-6-methoxy-1,2,3,4-tetrahydroisoquinoline-7-carboxamide] | < 1.25
3 | CCOC(=O)N1CCc2cc(F)c(C(=O)Nc3cccc(-c4nnc5n4[C@H](C)CC5)n3)cc2C1 [Example 12] | 1.25 to 10
4 | COc1cc2c(cc1C(=O)Nc1cccc(-c3nnc4n3C(C)(C)CC4)n1)CN(C(=O)OC(C)(C)C)CC2 [Example 14, tert-butyl 7-((6-(5,5-dimethyl-6,7-dihydro-5H-pyrrolo[2,1-c][1,2,4]triazol-3-yl)pyridin-2-yl)carbamoyl)-6-methoxy-3,4-dihydroisoquinoline-2(1H)-carboxylate] | 1.25 to 10

Other lines, results leading:

Row | IC50 [nM] | SMILES
5 | < 1.25 | COc1cc2c(cc1C(=O)Nc1cccc(-c3nnc4n3C(C)(C)CC4)n1)CN(C(=O)C(C)(C)CO)CC2 [Example 17, N-(6-(5,5-dimethyl-6,7-dihydro-5H-pyrrolo[2,1-c][1,2,4]triazol-3-yl)pyridin-2-yl)-2-(3-hydroxy-2,2-dimethylpropanoyl)-6-methoxy-1,2,3,4-tetrahydroisoquinoline-7-carboxamide]
6 | 10 to 100 | CCOC(=O)N1CCc2cc(F)c(C(=O)Nc3cccc(-c4nnc5n4[C@@H](C)CC5)n3)cc2C1 [Example 13]
7 | 1.25 to 10 | CCOC(=O)N1CCc2cc(OC)c(C(=O)Nc3cccc(-c4nnc5n4CCC5)n3)cc2C1 [Example 21, Ethyl 7-((6-(6,7-dihydro-5H-pyrrolo[2,1-c][1,2,4]triazol-3-yl)pyridin-2-yl)carbamoyl)-6-methoxy-3,4-dihydroisoquinoline-2(1H)-carboxylate]
8 | < 1.25 | COc1cc2c(cc1C(=O)Nc1cccc(-c3nnc4n3C(C)(C)CC4)n1)CN(C(=O)C[C@H](C)O)CC2 [Example 18, (S)—N-(6-(5,5-dimethyl-6,7-dihydro-5H-pyrrolo[2,1-c][1,2,4]triazol-3-yl)pyridin-2-yl)-2-(3-hydroxybutanoyl)-6-methoxy-1,2,3,4-tetrahydroisoquinoline-7-carboxamide]
9 | 1.25 to 10 | CCOC(=O)N1CCc2cc(F)c(C(=O)Nc3cccc(-c4nnc5n4C(C)(C)CC5)n3)cc2C1 [Example 11, Ethyl 7-((6-(5,5-dimethyl-6,7-dihydro-5H-pyrrolo[2,1-c][1,2,4]triazol-3-yl)pyridin-2-yl)carbamoyl)-6-fluoro-3,4-dihydroisoquinoline-2(1H)-carboxylate]
10 | < 1.25 | COc1cc2c(cc1C(=O)Nc1cccc(-c3nnc4n3C(C)(C)CC4)n1)CN(C(=O)C(C)(C)O)CC2 [Example 20, N-(6-(5,5-dimethyl-6,7-dihydro-5H-pyrrolo[2,1-c][1,2,4]triazol-3-yl)pyridin-2-yl)-2-(2-hydroxy-2-methylpropanoyl)-6-methoxy-1,2,3,4-tetrahydroisoquinoline-7-carboxamide]
11 | < 1.25 | COCCC(=O)N1CCc2cc(OC)c(C(=O)Nc3cccc(-c4nnc5n4C(C)(C)CC5)n3)cc2C1 [Example 16, N-(6-(5,5-dimethyl-6,7-dihydro-5H-pyrrolo[2,1-c][1,2,4]triazol-3-yl)pyridin-2-yl)-6-methoxy-2-(3-methoxypropanoyl)-1,2,3,4-tetrahydroisoquinoline-7-carboxamide]
